{"source": "ChEMBL document CHEMBL3286142", "about": "“Synthesis and antihyperglycemic evaluation of new 2-hydrazolyl-4-thiazolidinone-5-carboxylic acids having pyrazolyl pharmacophores” (2014)", "tested_on": "Rattus norvegicus", "test": "Antihyperglycemic activity in sucrose loaded albino Sprague-Dawley rat model assessed as improvement of glucose tolerance by measuring reduction in glucose AUC at 100 mg/kg, po administered 30 mins prior to sucrose load measured for 2 hrs by oral sucrose tolerance test", "assay_type": "functional", "set-up": "scale not given: the % may be the effect or the level left"}
{"smiles": "O=C(O)CC1S/C(=N\\N=C/c2cn(-c3ccccc3)nc2-c2ccc(Br)cc2)NC1=O", "note": "(configuration not stated)", "values": [{"measurement": "Activity", "result": 5.69, "unit": "%"}]}
{"smiles": "Cc1ccc(-c2nn(-c3ccccc3)cc2/C=N\\N=C2\\NC(=O)C(CC(=O)O)S2)cc1", "note": "(configuration not stated)", "values": [{"measurement": "Activity", "result": 6.09, "unit": "%"}]}
{"smiles": "COc1ccc(-c2nn(-c3ccccc3)cc2/C=N\\N=C2\\NC(=O)C(CC(=O)O)S2)cc1", "note": "(configuration not stated)", "values": [{"measurement": "Activity", "result": 6.97, "unit": "%"}]}
{"smiles": "CN(C)C(=N)NC(=N)N", "note": "[METFORMIN]", "values": [{"measurement": "Activity", "result": 14.1, "unit": "%"}]}
{"smiles": "O=C(O)CC1S/C(=N\\N=C/c2cn(-c3ccccc3)nc2-c2ccc(O)cc2)NC1=O", "note": "(configuration not stated)", "values": [{"measurement": "Activity", "result": 7.97, "unit": "%"}]}
{"smiles": "O=C(O)CC1S/C(=N\\N=C/c2cn(-c3ccccc3)nc2-c2ccc(F)cc2)NC1=O", "note": "(configuration not stated)", "values": [{"measurement": "Activity", "result": 7.64, "unit": "%"}]}
{"smiles": "O=C(O)CC1S/C(=N\\N=C/c2cn(-c3ccccc3)nc2-c2ccc([N+](=O)[O-])cc2)NC1=O", "note": "(configuration not stated)", "values": [{"measurement": "Activity", "result": 7.57, "unit": "%"}]}
